Data as given in US20230278972A1, “SUBSTITUTED HALOALKYL SULFONANILIDE HERBICIDES” (FMC Corporation, priority 2020, published 2023).

Legend:
Format in all cases: in vivo
[1] = tested on: kochia (Bassia scoparia); assay: Test A preemergence, kochia; conditions: Preemergence; for Kochia plant response rating: 125 g ai/ha, visual injury on 0 to 100 scale (0 no effect, 100 complete control), approximately 10 days; for Plant response rating, Kochia: 500 g ai/ha, 0 to 100 scale (0 no effect, 100 complete control)
How it was run: (§1)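 Greenhouse pot test in a loam–sand blend; compounds delivered in a non-phytotoxic solvent carrying a surfactant, applied either as a directed spray to soil at seeding or over seedlings 2 to 10 cm high with one to two leaves.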

[2] = tested on: corn (Zea mays); assay: Test A postemergence, corn; conditions: Postemergence, 0 to 100 scale (0 no effect, 100 complete control); for Plant response rating, Corn: 125 g ai/ha, visual injury approx. 10 days; for Corn plant response rating: 500 g ai/ha, visual injury vs untreated controls after approx. 10 days
How it was run: as §1

[3] = tested on: Foxtail, Giant (giant foxtail, Setaria faberi); assay: Test A postemergence, Foxtail, Giant; conditions: Postemergence, 0 to 100 scale (0 no effect, 100 complete control); for Plant response rating, Foxtail, Giant: 125 g ai/ha, visual injury approx. 10 days; for Foxtail, Giant plant response rating: 500 g ai/ha, visual injury vs untreated controls after approx. 10 days
How it was run: as §1

[4] = tested on: blackgrass (Alopecurus myosuroides); assay: Test A postemergence, blackgrass; conditions: Postemergence, 0 to 100 scale (0 no effect, 100 complete control); for Plant response rating, Blackgrass: 125 g ai/ha, visual injury approx. 10 days; for Blackgrass plant response rating: 500 g ai/ha, visual injury vs untreated controls after approx. 10 days
How it was run: as §1

[5] = tested on: pigweed (Amaranthus retroflexus); assay: Test A postemergence, pigweed; conditions: Postemergence, 0 to 100 scale (0 no effect, 100 complete control); for Plant response rating, Pigweed: 125 g ai/ha, visual injury approx. 10 days; for Pigweed plant response rating: 500 g ai/ha, visual injury vs untreated controls after approx. 10 days
How it was run: as §1

[6] = tested on: wheat (Triticum aestivum); assay: Test A postemergence, wheat; conditions: Postemergence, 0 to 100 scale (0 no effect, 100 complete control); for Plant response rating, Wheat: 125 g ai/ha, visual injury approx. 10 days; for Wheat plant response rating: 500 g ai/ha, visual injury vs untreated controls after approx. 10 days
How it was run: (§2)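 Formulated with a surfactant in a non-phytotoxic solvent, compounds are applied to loam–sand pots, either to bare soil immediately after seeding (preemergence) or to seedlings of 2 to 10 cm bearing one to two leaves (postemergence).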

[7] = tested on: Ryegrass, Italian (Italian ryegrass, Lolium multiflorum); assay: Test A preemergence, Ryegrass, Italian; conditions: Preemergence; for Ryegrass, Italian plant response rating: 125 g ai/ha, visual injury on 0 to 100 scale (0 no effect, 100 complete control), approximately 10 days; for Plant response rating, Ryegrass, Italian: 500 g ai/ha, 0 to 100 scale (0 no effect, 100 complete control)
How it was run: as §1

[8] = tested on: ragweed (common ragweed, Ambrosia artemisiifolia); assay: Test A postemergence, ragweed; conditions: Postemergence, 0 to 100 scale (0 no effect, 100 complete control); for Plant response rating, Ragweed: 125 g ai/ha, visual injury approx. 10 days; for Ragweed plant response rating: 500 g ai/ha, visual injury vs untreated controls after approx. 10 days
How it was run: as §1

[9] = tested on: ragweed (common ragweed, Ambrosia artemisiifolia); assay: Test A preemergence, ragweed; conditions: Preemergence; for Ragweed plant response rating: 125 g ai/ha, visual injury on 0 to 100 scale (0 no effect, 100 complete control), approximately 10 days; for Plant response rating, Ragweed: 500 g ai/ha, 0 to 100 scale (0 no effect, 100 complete control)
How it was run: as §1

[10] = tested on: kochia (Bassia scoparia); assay: Test A postemergence, kochia; conditions: Postemergence, 0 to 100 scale (0 no effect, 100 complete control); for Plant response rating, Kochia: 125 g ai/ha, visual injury approx. 10 days; for Kochia plant response rating: 500 g ai/ha, visual injury vs untreated controls after approx. 10 days
How it was run: as §1

[11] = tested on: pigweed (Amaranthus retroflexus); assay: Test A preemergence, pigweed; conditions: for Pigweed plant response rating: 125 g ai/ha, visual injury on 0 to 100 scale (0 no effect, 100 complete control), approximately 10 days; for Plant response rating, Pigweed: 500 g ai/ha, 0 to 100 scale (0 no effect, 100 complete control)
How it was run: as §2

[12] = tested on: galium (catchweed bedstraw, Galium aparine); assay: Test A postemergence, galium; conditions: Postemergence, 0 to 100 scale (0 no effect, 100 complete control); for Plant response rating, Galium: 125 g ai/ha, visual injury approx. 10 days; for Galium plant response rating: 500 g ai/ha, visual injury vs untreated controls after approx. 10 days
How it was run: as §2

[13] = tested on: barnyardgrass (Echinochloa crus-galli); assay: Test A preemergence, barnyardgrass; conditions: Preemergence; for Barnyardgrass plant response rating: 125 g ai/ha, visual injury on 0 to 100 scale (0 no effect, 100 complete control), approximately 10 days; for Plant response rating, Barnyardgrass: 500 g ai/ha, 0 to 100 scale (0 no effect, 100 complete control)
How it was run: as §1

[14] = tested on: barnyardgrass (Echinochloa crus-galli); assay: Test A postemergence, barnyardgrass; conditions: Postemergence, 0 to 100 scale (0 no effect, 100 complete control); for Plant response rating, Barnyardgrass: 125 g ai/ha, visual injury approx. 10 days; for Barnyardgrass plant response rating: 500 g ai/ha, visual injury vs untreated controls after approx. 10 days
How it was run: as §2

[15] = tested on: Foxtail, Giant (giant foxtail, Setaria faberi); assay: Test A preemergence, Foxtail, Giant; conditions: Preemergence; for Foxtail, Giant plant response rating: 125 g ai/ha, visual injury on 0 to 100 scale (0 no effect, 100 complete control), approximately 10 days; for Plant response rating, Foxtail, Giant: 500 g ai/ha, 0 to 100 scale (0 no effect, 100 complete control)
How it was run: as §1

[16] = tested on: Ryegrass, Italian (Italian ryegrass, Lolium multiflorum); assay: Test A postemergence, Ryegrass, Italian; conditions: Postemergence, 0 to 100 scale (0 no effect, 100 complete control); for Plant response rating, Ryegrass, Italian: 125 g ai/ha, visual injury approx. 10 days; for Ryegrass, Italian plant response rating: 500 g ai/ha, visual injury vs untreated controls after approx. 10 days
How it was run: as §1

SMILES | Kochia plant response rating [1] | Plant response rating, Kochia [1] | Plant response rating, Corn [2] | Corn plant response rating [2] | Plant response rating, Foxtail, Giant [3] | Foxtail, Giant plant response rating [3] | Plant response rating, Blackgrass [4] | Blackgrass plant response rating [4] | Pigweed plant response rating [5] | Wheat plant response rating [6] | Plant response rating, Ryegrass, Italian [7] | Ragweed plant response rating [8] | Plant response rating, Ragweed [9] | Kochia plant response rating [10] | Plant response rating, Pigweed [11] | Galium plant response rating [12] | Plant response rating, Barnyardgrass [13] | Barnyardgrass plant response rating [14] | Plant response rating, Foxtail, Giant [15] | Ryegrass, Italian plant response rating [16] | further results
COc1cc(C)c(NS(=O)(=O)C(F)(F)F)cc1-c1ccnn(C)c1=O [Compound 81] | 0 | 80 | 0 | 20 | 90 | 90 | 0 | 70 | 60 | 60 | 50 | 60 | 40 | 50 | 100 | 90 | 90 | 80 | 100 | 60 | Plant response rating, Pigweed [5]: 20; Plant response rating, Wheat [6]: 40; Ryegrass, Italian plant response rating [7]: 30; Plant response rating, Ragweed [8]: 20; Ragweed plant response rating [9]: 30; Plant response rating, Kochia [10]: 40; Pigweed plant response rating [11]: 30; Plant response rating, Galium [12]: 80; Barnyardgrass plant response rating [13]: 90; Plant response rating, Barnyardgrass [14]: 70; Foxtail, Giant plant response rating [15]: 100; Plant response rating, Ryegrass, Italian [16]: 0
Cc1cc(C)c(-n2nccc(Cl)c2=O)cc1NS(=O)(=O)C(F)(F)F [Compound 82] | 70 | 90 | 0 | 40 | 20 | 50 | 0 | 0 | 40 | 0 | 40 | 30 | 20 | 0 | 80 | 10 | 80 | 20 | 60 | 0 | Plant response rating, Pigweed [5]: 0; Plant response rating, Wheat [6]: 0; Ryegrass, Italian plant response rating [7]: 20; Plant response rating, Ragweed [8]: 0; Ragweed plant response rating [9]: 0; Plant response rating, Kochia [10]: 0; Pigweed plant response rating [11]: 90; Plant response rating, Galium [12]: 20; Barnyardgrass plant response rating [13]: 40; Plant response rating, Barnyardgrass [14]: 60; Foxtail, Giant plant response rating [15]: 0; Plant response rating, Ryegrass, Italian [16]: 0
Cc1cc(C)c(-n2ncccc2=O)cc1NS(=O)(=O)C(F)(F)F [Compound 83] | 60 | 70 | 0 | 30 | 0 | 40 | 0 | 0 | 50 | 0 | 50 | 60 | 20 | 20 | 90 | 80 | 80 | 70 | 80 | 0 | Plant response rating, Pigweed [5]: 40; Plant response rating, Wheat [6]: 0; Ryegrass, Italian plant response rating [7]: 30; Plant response rating, Ragweed [8]: 10; Ragweed plant response rating [9]: 0; Plant response rating, Kochia [10]: 0; Pigweed plant response rating [11]: 50; Plant response rating, Galium [12]: 60; Barnyardgrass plant response rating [13]: 70; Plant response rating, Barnyardgrass [14]: 20; Foxtail, Giant plant response rating [15]: 10; Plant response rating, Ryegrass, Italian [16]: 0
Cc1cc(C)c(-n2nccc(C)c2=O)cc1NS(=O)(=O)C(F)(F)F [Compound 84] |  | 70 |  | 60 |  | 50 |  | 20 | 30 | 70 | 90 | 40 | 0 | 0 | 70 | 50 | 80 | 80 | 90 | 50 | 
